From patent US8877759B2, “Aminopyrazines as ATR kinase inhibitors” (Vertex Pharnaceuticals Incorporated, priority 2011, dated 2014) come the findings set out here.

Read-outs that look alike come from different tables or passages of the source.

In the assay the target is T1, full-length ATR (Homo sapiens, UniProt Q13535).
T1 construct: Assays were carried out at 25° C. in the presence of 5 nM full-length ATR
The experiment in a line: ATR Inhibition Assay (radioactive-phosphate incorporation). Format: biochemical. The protocol: Compounds were screened for their ability to inhibit ATR kinase using a radioactive-phosphate incorporation assay. Assays were carried out in a mixture of 50 mM Tris/HCl (pH 7.5), 10 mM MgCl2 and 1 mM DTT.
Assays were carried out at 25° C. in the presence of 5 nM full-length ATR. An assay stock buffer solution was prepared containing all of the reagents listed above, with the exception of ATP and the test compound of interest. […] The plate was pre-incubated for 10 minutes at 25° C. and the reaction initiated by addition of 15 μL [γ-33P]ATP (final concentration 10 μM).
The reaction was stopped after […] by the addition of 30 μL 0.1M phosphoric acid containing 2 mM ATP. A multiscreen phosphocellulose filter 96-well plate (Millipore, Cat no. MAPHN0B50) was pretreated with 100 μL 0.2M phosphoric acid prior to the addition of 45 μL of the stopped assay mixture. The plate was washed with 5×200 μL 0.2M phosphoric acid.
After removing mean background values for all of the data points, Ki(app) data were calculated from non-linear regression analysis of the initial rate data using the Prism software package (GraphPad Prism version 3.0cx for Macintosh, GraphPad Software, San Diego Calif., USA).

Setting [1] is: Ki(app), 5 nM full-length ATR, 10 μM [γ-33P]ATP, 800 μM target peptide, 25° C.

T1 sequence (Q13535 whole entry): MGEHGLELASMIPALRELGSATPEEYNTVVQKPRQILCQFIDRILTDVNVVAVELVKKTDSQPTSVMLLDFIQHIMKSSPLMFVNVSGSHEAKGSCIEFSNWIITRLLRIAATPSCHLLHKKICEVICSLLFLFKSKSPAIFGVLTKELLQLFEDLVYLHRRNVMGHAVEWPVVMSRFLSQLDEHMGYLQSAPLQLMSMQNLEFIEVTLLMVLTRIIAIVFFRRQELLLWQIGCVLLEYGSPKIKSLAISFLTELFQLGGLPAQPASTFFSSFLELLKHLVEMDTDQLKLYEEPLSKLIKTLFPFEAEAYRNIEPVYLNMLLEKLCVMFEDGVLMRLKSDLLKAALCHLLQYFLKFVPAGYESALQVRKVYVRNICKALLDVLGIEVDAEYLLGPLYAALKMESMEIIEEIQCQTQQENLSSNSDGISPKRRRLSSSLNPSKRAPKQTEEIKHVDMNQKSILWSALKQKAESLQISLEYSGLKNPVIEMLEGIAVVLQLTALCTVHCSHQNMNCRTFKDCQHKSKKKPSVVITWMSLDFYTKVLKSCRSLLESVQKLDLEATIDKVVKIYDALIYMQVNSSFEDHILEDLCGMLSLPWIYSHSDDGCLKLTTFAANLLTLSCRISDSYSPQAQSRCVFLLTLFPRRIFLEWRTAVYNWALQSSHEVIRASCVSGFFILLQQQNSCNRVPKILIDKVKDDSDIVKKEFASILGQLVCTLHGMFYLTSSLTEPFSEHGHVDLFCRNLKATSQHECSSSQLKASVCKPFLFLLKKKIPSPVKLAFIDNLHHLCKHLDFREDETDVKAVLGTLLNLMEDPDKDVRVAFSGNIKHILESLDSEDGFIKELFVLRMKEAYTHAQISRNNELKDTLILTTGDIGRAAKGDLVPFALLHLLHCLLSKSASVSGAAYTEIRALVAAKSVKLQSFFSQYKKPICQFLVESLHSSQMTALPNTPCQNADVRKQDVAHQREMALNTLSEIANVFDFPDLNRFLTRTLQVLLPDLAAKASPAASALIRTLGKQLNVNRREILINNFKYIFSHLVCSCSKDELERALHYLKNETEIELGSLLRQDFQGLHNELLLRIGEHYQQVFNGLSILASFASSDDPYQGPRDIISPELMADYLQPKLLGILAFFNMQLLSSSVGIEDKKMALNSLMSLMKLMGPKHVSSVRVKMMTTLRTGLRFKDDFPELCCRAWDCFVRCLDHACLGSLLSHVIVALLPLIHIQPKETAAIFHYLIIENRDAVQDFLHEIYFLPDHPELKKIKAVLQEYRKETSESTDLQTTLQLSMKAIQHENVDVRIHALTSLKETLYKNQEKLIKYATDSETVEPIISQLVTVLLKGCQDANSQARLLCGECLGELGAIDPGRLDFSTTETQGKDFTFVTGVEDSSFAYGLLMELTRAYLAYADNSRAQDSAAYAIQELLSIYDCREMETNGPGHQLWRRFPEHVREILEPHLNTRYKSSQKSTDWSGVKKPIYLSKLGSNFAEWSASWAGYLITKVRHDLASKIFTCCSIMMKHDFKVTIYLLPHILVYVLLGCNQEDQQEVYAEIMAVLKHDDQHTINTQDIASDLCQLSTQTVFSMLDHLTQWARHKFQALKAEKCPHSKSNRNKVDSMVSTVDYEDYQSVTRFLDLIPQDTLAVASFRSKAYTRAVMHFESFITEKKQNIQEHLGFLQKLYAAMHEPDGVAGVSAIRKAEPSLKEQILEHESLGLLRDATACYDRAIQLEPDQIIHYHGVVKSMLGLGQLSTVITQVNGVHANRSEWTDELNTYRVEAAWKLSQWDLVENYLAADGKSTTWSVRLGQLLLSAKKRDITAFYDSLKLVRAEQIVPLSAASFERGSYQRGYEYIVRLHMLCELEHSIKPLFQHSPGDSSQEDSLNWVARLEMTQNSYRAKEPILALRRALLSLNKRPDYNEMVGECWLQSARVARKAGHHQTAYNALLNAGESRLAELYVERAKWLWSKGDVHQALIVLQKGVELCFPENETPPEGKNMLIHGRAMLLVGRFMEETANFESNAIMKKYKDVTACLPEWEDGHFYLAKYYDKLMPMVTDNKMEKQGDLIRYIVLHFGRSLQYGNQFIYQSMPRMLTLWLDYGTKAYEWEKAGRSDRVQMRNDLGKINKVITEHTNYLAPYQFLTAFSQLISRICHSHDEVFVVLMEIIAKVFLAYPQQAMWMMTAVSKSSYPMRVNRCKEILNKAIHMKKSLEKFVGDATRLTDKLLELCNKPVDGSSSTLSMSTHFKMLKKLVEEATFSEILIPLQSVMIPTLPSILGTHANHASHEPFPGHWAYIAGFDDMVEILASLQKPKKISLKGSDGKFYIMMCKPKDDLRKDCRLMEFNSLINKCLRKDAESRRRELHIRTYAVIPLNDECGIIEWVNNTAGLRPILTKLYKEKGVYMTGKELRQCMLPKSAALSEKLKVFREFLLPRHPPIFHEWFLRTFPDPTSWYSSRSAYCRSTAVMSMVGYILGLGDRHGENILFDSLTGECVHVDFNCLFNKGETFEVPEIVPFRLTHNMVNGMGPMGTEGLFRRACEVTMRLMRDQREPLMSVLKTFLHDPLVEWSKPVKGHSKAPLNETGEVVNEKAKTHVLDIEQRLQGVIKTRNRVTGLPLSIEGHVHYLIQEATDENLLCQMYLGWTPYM

Regarding `CNCc1ccc(-c2cc(-c3nc(-c4ccnc(C(C)(C)C#N)c4)cnc3N)on2)cc1` [Compound I-1, 2-[4-[5-amino-6-[3-[4-(methylaminomethyl)phenyl]isoxazol-5-yl]pyrazin-2-yl]-2-pyridyl]-2-methyl-propanenitrile], the Ki is less than 1 nM.
On the same count and under the same terms, next, `CCC(C#N)(CC)c1cc(-c2cnc(N)c(-c3cc(-c4ccc(CNC)cc4)no3)n2)ccn1` [Compound I-2, 2-[4-[5-amino-6-[3-[4-(methylaminomethyl)phenyl]isoxazol-5-yl]pyrazin-2-yl]-2-pyridyl]-2-ethyl-butanenitrile]: less than 1 nM; `CCC(C#N)c1cc(-c2cnc(N)c(-c3cc(-c4ccc(CNC)cc4)no3)n2)ccn1` (centres unmarked) [Compound I-3, 2-[4-[5-amino-6-[3-[4-(methylaminomethyl)phenyl]isoxazol-5-yl]pyrazin-2-yl]-2-pyridyl]butanenitrile]: less than 1 nM.
Still for that read-out and setting: next, `CNCc1ccc(-c2nnc(-c3nc(-c4ccnc(C(C)(C)C#N)c4)cnc3N)o2)cc1` [Compound I-4, 2-[4-[5-amino-6-[5-[4-(methylaminomethyl)phenyl]-1,3,4-oxadiazol-2-yl]pyrazin-2-yl]-2-pyridyl]-2-methyl-propanenitrile]: less than 1 nM.
On the same count and under the same terms, next, `CC(C)(C#N)c1cc(-c2cnc(N)c(-c3cc(-c4ccccc4)no3)n2)ccn1` [Compound I-5, 2-[4-[5-amino-6-(3-phenylisoxazol-5-yl)pyrazin-2-yl]-2-pyridyl]-2-methyl-propanenitrile]: less than 1 nM.
On to `N#CC1(c2cc(-c3cnc(N)c(-c4cc(-c5ccccc5)no4)n3)ccn2)CCNCC1` [Compound I-6, 4-[4-[5-amino-6-(3-phenylisoxazol-5-yl)pyrazin-2-yl]-2-pyridyl]piperidine-4-carbonitrile], for which, under setting [1], the “ATR Ki” value is reported as “+++ (Compounds with a Ki value >5 nM but ≦1 nM are marked with “+++.”)”.
Turning to `N#CC1(c2cc(-c3cnc(N)c(-c4cc(-c5ccccc5)no4)n3)ccn2)CCOCC1` [Compound I-7, 4-[4-[5-amino-6-(3-phenylisoxazol-5-yl)pyrazin-2-yl]-2-pyridyl]tetrahydropyran-4-carbonitrile], the Ki is less than 1 nM.
The same measure, in the same setting: under `Cc1ccsc1-c1cc(-c2nc(-c3ccnc(C(C)(C)C#N)c3)cnc2N)on1` [Compound I-8, 2-[4-[5-amino-6-[3-(3-methyl-2-thienyl)isoxazol-5-yl]pyrazin-2-yl]-2-pyridyl]-2-methyl-propanenitrile] stands less than 1 nM; under `CNCc1ccc(-c2cc(-c3nc(-c4ccnc(C5(C#N)CCOCC5)c4)cnc3N)on2)cc1` [Compound I-9, 4-[4-[5-amino-6-[3-[4-(methylaminomethyl)phenyl]isoxazol-5-yl]pyrazin-2-yl]-2-pyridyl]tetrahydropyran-4-carbonitrile], less than 1 nM; under `CNCc1ccc(-c2cc(-c3nc(-c4ccnc(C(C)(C)C(N)=O)c4)cnc3N)on2)cc1` [Compound I-10, 2-[4-[5-amino-6-[3-[4-(methylaminomethyl)phenyl]isoxazol-5-yl]pyrazin-2-yl]-2-pyridyl]-2-methyl-propanamide], less than 1 nM.
On the same count and under the same terms, next, `CNCc1ccc(-c2cc(-c3nc(-c4ccnc(C(C)(C)C(=O)N(C)C)c4)cnc3N)on2)cc1` [Compound I-11, 2-[4-[5-amino-6-[3-[4-(methylaminomethyl)phenyl]isoxazol-5-yl]pyrazin-2-yl]-2-pyridyl]-N,N,2-trimethyl-propanamide]: less than 1 nM.
For `N#CC1(c2cc(-c3cnc(N)c(-c4cc(-c5ccccc5)no4)n3)ccn2)CCCNC1` (centres unmarked) [Compound I-12, 3-[4-[5-amino-6-(3-phenylisoxazol-5-yl)pyrazin-2-yl]-2-pyridyl]piperidine-3-carbonitrile], the “ATR Ki” value under setting [1] is “+++ (Compounds with a Ki value >5 nM but ≦1 nM are marked with “+++.”)”.
`CNCc1ccc(-c2cc(-c3nc(-c4ccnc(C5(C(N)=O)CCOCC5)c4)cnc3N)on2)cc1` [Compound I-13, 4-[4-[5-amino-6-[3-[4-(methylaminomethyl)phenyl]isoxazol-5-yl]pyrazin-2-yl]-2-pyridyl]tetrahydropyran-4-carboxamide]: the Ki was less than 1 nM.
As to `CNCc1ccc(-c2cc(-c3nc(-c4ccnc(C(C)(C)S(C)(=O)=O)c4)cnc3N)on2)cc1` [Compound I-14, 3-[3-[4-(methylaminomethyl)phenyl]isoxazol-5-yl]-5-[2-(1-methyl-1-methylsulfonyl-ethyl)-4-pyridyl]pyrazin-2-amine], the Ki is less than 1 nM.
Consider `CNCc1ccc(-c2cc(-c3nc(-c4ccnc(C(C)S(C)(=O)=O)c4)cnc3N)on2)cc1` (centres unmarked) [Compound I-15, 3-[3-[4-(methylaminomethyl)phenyl]isoxazol-5-yl]-5-[2-(1-methylsulfonylethyl)-4-pyridyl]pyrazin-2-amine], for which the Ki is less than 1 nM.
`CC(C)(C#N)c1cc(-c2cnc(N)c(-c3cc(-c4ccc(C(N)CF)cc4)no3)n2)ccn1` (centres unmarked) [Compound I-16, 2-[4-[5-amino-6-[3-[4-(1-amino-2-fluoro-ethyl)phenyl]isoxazol-5-yl]pyrazin-2-yl]-2-pyridyl]-2-methyl-propanenitrile]: the Ki is less than 1 nM.
Still for that read-out and setting: under `CC(C)(C#N)c1cc(-c2cnc(N)c(-c3cc(-c4ccc(CN[C@@H]5CCOC5)cc4)no3)n2)ccn1` [Compound I-17, 2-[4-[5-amino-6-[3-[4-[[[(3R)-tetrahydrofuran-3-yl]amino]methyl]phenyl]isoxazol-5-yl]pyrazin-2-yl]-2-pyridyl]-2-methyl-propanenitrile] stands less than 1 nM; under `CC(C)(C#N)c1cc(-c2cnc(N)c(-c3cc(-c4ccc(CNC5COC5)cc4)no3)n2)ccn1` [Compound I-18, 2-[4-[5-amino-6-[3-[4-[(oxetan-3-ylamino)methyl]phenyl]isoxazol-5-yl]pyrazin-2-yl]-2-pyridyl]-2-methyl-propanenitrile], less than 1 nM.
With `CC(C)(C#N)c1cc(-c2cnc(N)c(-c3cc(-c4ccc(CN[C@H]5CCOC5)cc4)no3)n2)ccn1` [Compound I-19, 2-[4-[5-amino-6-[3-[4-[[[(3S)-tetrahydrofuran-3-yl]amino]methyl]phenyl]isoxazol-5-yl]pyrazin-2-yl]-2-pyridyl]-2-methyl-propanenitrile], the Ki under setting [1] is less than 1 nM.
For the compound `CC(C)(C(=O)N1CCNCC1)c1cc(-c2cnc(N)c(-c3cc(-c4ccccc4)no3)n2)ccn1` [Compound I-20, 2-[4-[5-amino-6-(3-phenylisoxazol-5-yl)pyrazin-2-yl]-2-pyridyl]-2-methyl-1-piperazin-1-yl-propan-1-one], the Ki is 5 to 20 nM.
Take `CC(C)(C(=O)NCCN1CCOCC1)c1cc(-c2cnc(N)c(-c3cc(-c4ccccc4)no3)n2)ccn1` [Compound I-21, 2-[4-[5-amino-6-(3-phenylisoxazol-5-yl)pyrazin-2-yl]-2-pyridyl]-2-methyl-N-(2-morpholinoethyl)propanamide]: the Ki was 5 to 20 nM.
In the case of `CC(C)(c1cc(-c2cnc(N)c(-c3cc(-c4ccccc4)no3)n2)ccn1)S(C)(=O)=O` [Compound I-22, 5-[2-(1-methyl-1-methylsulfonyl-ethyl)-4-pyridyl]-3-(3-phenylisoxazol-5-yl)pyrazin-2-amine], the Ki was less than 1 nM.
For `CC(C)(c1cc(-c2cnc(N)c(-c3cc(-c4ccccc4)no3)n2)ccn1)S(=O)(=O)C1CCNCC1` [Compound I-23, 5-[2-[1-methyl-1-(4-piperidylsulfonyl)ethyl]-4-pyridyl]-3-(3-phenylisoxazol-5-yl)pyrazin-2-amine], the “ATR Ki” value under setting [1] was “+++ (Compounds with a Ki value >5 nM but ≦1 nM are marked with “+++.”)”.
